From patent US20240109891A1, “NOVEL SUBSTITUTED TRICYCLIC AZA-HETEROCYCLES AS SOS1 INHIBITORS” (Viva Star Biosciences (Suzhou) Co., Ltd., priority 2021, published 2024)

Tests used:
[1] = biological target: T1, KRAS G12D and SOS1 proteins (Homo sapiens, UniProt Q07889); assay: KRAS-G12D/SOS1 binding assay (HTRF); details: Tag1-SOS1 / Tag2-KRAS G12D, 10 μM GTP
T1 construct: purchased Cisbio 63ADK000CB17PEG
T1 sequence (Q07889 1-1333): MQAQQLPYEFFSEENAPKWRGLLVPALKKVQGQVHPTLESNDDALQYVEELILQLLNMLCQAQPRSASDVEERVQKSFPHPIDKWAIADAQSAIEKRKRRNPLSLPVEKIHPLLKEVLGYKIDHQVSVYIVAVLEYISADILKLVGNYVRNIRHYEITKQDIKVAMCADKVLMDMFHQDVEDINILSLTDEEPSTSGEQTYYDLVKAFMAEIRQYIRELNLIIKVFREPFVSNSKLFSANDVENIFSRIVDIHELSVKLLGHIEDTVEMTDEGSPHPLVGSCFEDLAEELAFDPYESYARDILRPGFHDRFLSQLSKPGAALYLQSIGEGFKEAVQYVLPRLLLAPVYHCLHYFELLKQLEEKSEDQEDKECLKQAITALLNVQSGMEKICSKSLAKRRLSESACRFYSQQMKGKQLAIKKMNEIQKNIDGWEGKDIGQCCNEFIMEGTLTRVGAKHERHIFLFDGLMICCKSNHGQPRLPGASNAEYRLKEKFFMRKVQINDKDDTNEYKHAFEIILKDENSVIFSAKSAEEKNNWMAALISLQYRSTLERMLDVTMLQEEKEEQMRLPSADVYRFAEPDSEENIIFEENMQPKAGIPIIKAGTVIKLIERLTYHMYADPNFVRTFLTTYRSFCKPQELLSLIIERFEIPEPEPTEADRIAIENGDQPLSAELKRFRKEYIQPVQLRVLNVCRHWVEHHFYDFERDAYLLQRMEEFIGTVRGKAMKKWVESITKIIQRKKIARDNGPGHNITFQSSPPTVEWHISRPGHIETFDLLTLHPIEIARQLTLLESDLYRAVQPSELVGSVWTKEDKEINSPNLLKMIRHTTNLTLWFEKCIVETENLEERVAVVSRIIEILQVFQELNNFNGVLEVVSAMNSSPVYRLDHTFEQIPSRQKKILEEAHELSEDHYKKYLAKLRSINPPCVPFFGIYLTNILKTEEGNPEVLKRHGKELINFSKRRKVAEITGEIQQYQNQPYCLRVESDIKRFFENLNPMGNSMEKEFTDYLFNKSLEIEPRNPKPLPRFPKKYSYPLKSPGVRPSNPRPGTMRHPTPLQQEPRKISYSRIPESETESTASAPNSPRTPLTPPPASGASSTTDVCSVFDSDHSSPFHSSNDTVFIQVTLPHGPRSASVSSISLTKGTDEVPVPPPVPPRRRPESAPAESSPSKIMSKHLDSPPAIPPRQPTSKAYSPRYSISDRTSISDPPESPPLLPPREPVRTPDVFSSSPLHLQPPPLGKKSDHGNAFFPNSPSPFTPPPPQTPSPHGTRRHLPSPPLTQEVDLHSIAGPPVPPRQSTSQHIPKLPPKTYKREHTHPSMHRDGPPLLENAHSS
Experimental: (§1) KRAS-WT (or G12C/G12D/G12V)/SOS1 Binding Assay
(§2) Low IC50 values are indicative of high potency of the SOS1 inhibitor compounds in this assay setting.
(§3) The KRAS-WT (or G12C/G12D/G12V)/SOS1 binding assay is performed using an assay kit (Cisbio, Cat #63ADK000CB15PEG or 63ADK000CB16PEG/63ADK000CB17PEG/63ADK000CB18PEG) according to the procedure recommended by the manufacturer. • 1) Thaw and prepare the working solution of Tag1-SOS1 protein and Tag2-KRAS-WT (or G12C/G12D/G12V) protein with final concentration of 10 μM GTP (Sigma, Cat #V900868). • 2) Thaw and prepare the working solution of anti-Tag1-Tb^3+ anti-Tag2-XL665. • 3) Dispense 2 μL of serially diluted compound, 4 μL of Tag1-SOS1 protein and 4 μL of Tag2-KRAS-WT (or G12C/G12D/G12V) protein with GTP into a ProxiPlate-384 Plus, white 384-shallow well microplate (PerkinElmer, Cat #6008280). • 4) Incubate the plate for 15 minutes at room temperature. • 5) Dispense 10 μL of pre-mixed anti-Tag1-Tb^3+ and anti-Tag2-XL665 into the plate. • 6) Seal the plate and incubate for 2 hours at room temperature. • 7) Remove the plate sealer and read on PHERAstar FS (BMG LABTECH, PHERAstar FS). • 8) Calculate the ratio of the acceptor and donor emission signals for each individual well using the following equation.
(§4) [formula] • 9) IC50 values are fitted and calculated by HTRF signal values and log of compound concentrations to nonlinear regression [Log (inhibitor) vs. Response−Variable Slope (four parameters)] using the GraphPad Prism 8.0.

[2] = biological target: T2, KRAS-WT and SOS1 proteins (Homo sapiens, UniProt Q07889); assay: KRAS-WT/SOS1 binding assay (HTRF); details: Tag1-SOS1 / Tag2-KRAS-WT, 10 μM GTP, read-out: Activity Data in Kras: SOS1 Assay, Wild Type
T2 construct: purchased Cisbio 63ADK000CB15PEG
T2 sequence (Q07889 1-1333): T1 sequence (Q07889 1-1333)
Experimental: as §1, §2, §3, §4

Structure (SMILES) | IC50 [1] [nM] | IC50 [2] [nM]
Cc1nc(N[C@H](C)c2cccc3c2CCC3(F)F)c2cc(-c3ccc(=O)n(C)c3)c3c(cnn3C)c2n1 [Example 25, (R)-5-(4-((1-(1,1-difluoro-2,3-dihydro-1H-inden-4-yl)ethyl)amino)-2,7-dimethyl-7H-pyrazolo[3,4-h]quinazolin-6-yl)-1-methylpyridin-2(1H)-one] | < 100 | < 100
COc1cc2c(cc1O[C@H]1CCOC1)c(N[C@H](C)c1cccc(C(F)(F)F)c1)nc1cncn12 [Example 56, 8-methoxy-7-(((S)-tetrahydrofuran-3-yl)oxy)-N—((R)-1-(3-(trifluoromethyl)phenyl)ethyl)imidazo[1,5-a]quinazolin-5-amine] | 500 to 5000 | 500 to 5000
C[C@@H](Nc1nc(C(F)(F)F)nc2c1cc(-c1ccc(=O)n(C)c1)c1c2cnn1C)c1cc(F)cc(C(F)(F)CO)c1 [Example 33, (R)-5-(4-((1-(3-(1,1-difluoro-2-hydroxyethyl)-5-fluorophenyl)ethyl)amino)-7-methyl-2-(trifluoromethyl)-7H-pyrazolo[3,4-h]quinazolin-6-yl)-1-methylpyridin-2(1H)-one] | 100 to 500 | 100 to 500
C[C@@H](Nc1nc2ccnn2c2cc(=O)n(C3CCN(C)CC3)cc12)c1cccc(C(F)(F)CO)c1 [Example 76, (R)-5-((1-(3-(1,1-difluoro-2-hydroxyethyl)phenyl)ethyl)amino)-7-(1-methylpiperidin-4-yl)pyrazolo[1,5-a]pyrido[3,4-e]pyrimidin-8(7H)-one] | < 100 | < 100
COc1cc2c(cc1C1CCN(C(C)=O)CC1)c(N[C@H](C)c1cccc3c1CCC3(F)F)nc1ccnn12 [Example 52, (R)-1-(4-(5-((1-(1,1-difluoro-2,3-dihydro-1H-inden-4-yl)ethyl)amino)-8-methoxypyrazolo[1,5-a]quinazolin-7-yl)piperidin-1-yl)ethanone] | 100 to 500 | 100 to 500
Cc1nc(N[C@H](C)c2cccc(C(F)(F)CO)c2)c2cc(O[C@H]3CCN(C)C3)c3c(cnn3C)c2n1 [Example 41, 2-(3-((R)-1-((2,7-dimethyl-6-(((S)-1-methylpyrrolidin-3-yl)oxy)-7H-pyrazolo[3,4-h]quinazolin-4-yl)amino)ethyl)phenyl)-2,2-difluoroethan-1-ol] | < 100 | < 100
Cc1nc(N[C@H](C)c2cccc3c2CCC3(F)F)c2cc(O[C@H]3CCOC3)c3nncn3c2n1 [Example 19, N-((R)-1-(1,1-difluoro-2,3-dihydro-1H-inden-4-yl)ethyl)-2-methyl-6-(((S)-tetrahydrofuran-3-yl)oxy)-[1,2,4]triazolo[4′,3′:1,6]pyrido[2,3-d]pyrimidin-4-amine] | < 100 | < 100
Cc1nc(N[C@H](C)c2cc(N)cc(C(F)(F)F)c2)c2cc(O[C@H]3CCOC3)c3c(cnn3C)c2n1 [Example 37, N-((R)-1-(3-amino-5-(trifluoromethyl)phenyl)ethyl)-2,7-dimethyl-6-(((S)-tetrahydrofuran-3-yl)oxy)-7H-pyrazolo[3,4-h]quinazolin-4-amine] | < 100 | < 100
Cc1nc(N[C@H](C)c2cccc3c2CCC3(F)F)c2cc(N3CCOCC3)c3nncn3c2n1 [Example 23, N-[(1R)-1-(1,1-difluoro-2,3-dihydro-1H-inden-4-yl)ethyl]-12-methyl-7-(morpholin-4-yl)-2,4,5,11,13-pentaazatricyclo[7.4.0.0^{2,6}]trideca-1(9),3,5,7,10,12-hexaen-10-amine] | < 100 | < 100
COCC(F)(F)c1cccc([C@@H](C)Nc2nc(C)nc3c2cc(-c2ccc(=O)n(C)c2)c2c3cnn2C)c1 [Example 31, (R)-5-(4-((1-(3-(1,1-difluoro-2-methoxyethyl)phenyl)ethyl)amino)-2,7-dimethyl-7H-pyrazolo[3,4-h]quinazolin-6-yl)-1-methylpyridin-2(1H)-one] | < 100 | < 100
C[C@@H](Nc1nc2ccnn2c2cc(=O)n(C3CC(F)(F)C3)cc12)c1cc(F)cc(C(F)(F)CO)c1 [Example 73, (R)-5-((1-(3-(1,1-difluoro-2-hydroxyethyl)-5-fluorophenyl)ethyl)amino)-7-(3,3-difluorocyclobutyl)pyrazolo[1,5-a]pyrido[3,4-e]pyrimidin-8(7H)-one] | < 100 | < 100
Cc1nc(N[C@H](C)c2cc(C(C)(C)O)cc(C(F)(F)F)c2)c2cc(-c3ccc(=O)n(C)c3)c3c(cnn3C)c2n1 [Example 26, (R)-5-(4-((1-(3-(2-hydroxypropan-2-yl)-5-(trifluoromethyl)phenyl)ethyl)amino)-2,7-dimethyl-7H-pyrazolo[3,4-h]quinazolin-6-yl)-1-methylpyridin-2(1H)-one] | > 5000 | > 5000
COc1cc2c(cc1O[C@H]1CCOC1)c(N[C@H](C)c1cccc(C(F)(F)F)c1)nc1ccnn12 [Example 54, 8-methoxy-7-[(3 S)-oxolan-3-yloxy]-N-[(1R)-1-[3-(trifluoromethyl)phenyl]ethyl]pyrazolo[1,5-α]quinazolin-5-amine] | 500 to 5000 | 500 to 5000
Cc1nc(N[C@H](C)c2cccc(C(F)(F)CO)c2)c2cc(C3CCN(C)CC3)c3c(cnn3C)c2n1 [Example 30, (R)-2-(3-(1-((2,7-dimethyl-6-(1-methylpiperidin-4-y1)-7H-pyrazolo[3,4-h]quinazolin-4-yl)amino)ethyl)phenyl)-2,2-difluoroethan-1-ol] | < 100 | < 100
C[C@@H](Nc1nc2ccnn2c2cc(=O)n(C3CCNCC3)cc12)c1cccc(C(F)(F)CO)c1 [Example 77, 8-{[(1R)-1-[3-(1,1-difluoro-2-hydroxyethyl)phenyl]ethyl]amino}-11-(piperidin-4-yl)-2,3,7,11-tetraazatricyclo[7.4.0.0^{2,6}]trideca-1(13),3,5,7,9-pentaen-12-one] | < 100 | < 100
C[C@@H](Nc1nc2ccnn2c2cc(=O)n([C@H]3CCOC3)cc12)c1cc(N)cc(C(F)(F)F)c1 [Example 70, 5-(((R)-1-(3-amino-5-(trifluoromethyl)phenyl)ethyl)amino)-7-((S)-tetrahydrofuran-3-yl)pyrazolo[1,5-a]pyrido[3,4-e]pyrimidin-8(7H)-one] | < 100 | < 100
Cc1nc(N[C@H](C)c2cccc3c2CCC3(F)F)c2cc(C3CCN(S(C)(=O)=O)CC3)c3nncn3c2n1 [Example 8, (R)-N-(1-(1,1-difluoro-2,3-dihydro-1H-inden-4-yl)ethyl)-2-methyl-6-(1-(methylsulfonyl)piperidin-4-yl)-[1,2,4]triazolo[4′,3′:1,6]pyrido[2,3-d]pyrimidin-4-amine] | < 100 | < 100
